Test results from PubChem BioAssay AID2060325 (Molecular Pharmacology Branch, DTP, NCI, 2025).

Test system: SK-OV-3 multi-cell spheroids, viability
Experiment: Anticancer human tumor SK-OV-3 cell line growth inhibition [IpAb];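 for viability, T/C: viability read after seven days of drug exposure; percent of DMSO vehicle control luminescence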
Conditions: for viability, T/C: stronger effect = lower value
Description: Combinatorial screen of targeted agents with ipatasertib and abemaciclib in multi-cell type tumor spheroids
A high-throughput screen of multi-cell type tumor spheroids was designed to identify active combinations of targeted small molecules and ipatasertib or abemaciclib. Complex spheroids include a stromal component modeled by human endothelial cells (HUVEC) and fibroblasts modeled by human mesenchymal stem cells (MSCs). The concentration ranges selected for each drug and investigational agent were based upon clinically achievable concentrations if the clinical Cmax of the agent was known.
Compounds. The drugs and investigational agents: ipatasertib (NSC767898), abemaciclib(NSC768073), selumetinib (NSC741078), trametinib (758246), adavosertib (NSC754352), everolimus (NSC733504), sapanisertib (NSC764658), vemurafenib (NSC761431), venetoclax (NSC766270), copanlisib (NSC809693), apelisib (NSC765974), palbociblib (NSC758247), vemurafenib (NSC761431), dabrafenib (NSC764134), ravoxertinib (NSC781343), BMS-387032 (NSC767048), sotorasib (NSC818433), talazoparib (NSC767125) and afursertib (NSC778305), were obtained from the National Cancer Institute (NCI) Developmental Therapeutics Program Chemical Repository. The FDA-approved anticancer drug set is available from the NCI Developmental Therapeutics Program. […] The stock solutions were prepared in dimethyl sulfoxide (DMSO, Sigma-Aldrich, St. Louis, MO, cat. D2650) at 800-fold the tested concentration and stored at -70 degrees C prior to their use. All drugs and investigational agents were tested over a range starting from a high concentration at or near the clinical Cmax and decreasing in half-log increments. If the clinical Cmax for an agent had not been determined, the highest concentration tested was 10 microM.
NCI60 Cell Culture. NCI60 cell lines were obtained from the NCI Developmental Therapeutics Program Tumor Repository. For each lot of cells, the Repository performed Applied Biosystems AmpFLSTR Identifiler testing with PCR amplification to confirm consistency with the published Identifier STR profile for each cell line. Cells were kept in continuous culture for no more than 20 passages. The optimal seeding densities for each of the cell lines at each time point assessed were determined prior to performing the concentration response studies. Briefly, the NCI60 human tumor lines were grown as monolayers in RPMI 1640 medium supplemented with 10% FBS and 2 mmol/L L-glutamine.
An additional 9 lines were from the NCI60 cell line panel including MDA-MB-231 breast carcinoma, MDA-MB-468 breast carcinoma, MCF7 breast carcinoma, Hs578T breast carcinoma, MALME-3M melanoma, SK-MEL-2 melanoma, SK-OV-3 ovarian carcinoma, DU-145 prostate carcinoma, PC-3 prostate carcinoma, all cell lines along with major genetic alterations are listed on Table 2. Pooled donor human umbilical vein endothelial cells (HUVEC, Lonza, cat. CC-2519) and human mesenchymal stem cells (hMSC, Lonza, cat. PT-2501) were purchased from Lonza (Walkersville, MD).
PDMR cell lines were grown in complete medium (DC medium): Dulbecco's modified Eagle's medium (DMEM)/F12 supplemented with 5% fetal bovine serum (FBS), 2 mM L-glutamine, 100 U/mL penicillin and 100 µg/ml streptomycin, 0.4 µg/ml hydrocortisone, 10 ng/ml epidermal growth factor (EGF) recombinant human protein, 24 µg/mL adenine, and 0.1 mg/mL primocin. During culture from frozen stock vials, PDMR cells were cultured in the same medium containing 10 µM Y-27632 (see Table 3). The PDCs were cultured in complete DMEM/F12 media without 10 microM Y-27632 dihydrochloride for at least two passages prior to the screen. The pooled donor HUVEC and hMSC were cultured in endothelial cell growth medium 2 (PromoCell, Heidelberg, Germany, cat. C-22011) and mesenchymal stem cell growth medium 2 (PromoCell, cat. C-28009), respectively. For all experiments, HUVEC and hMSC were used at passages </=5.
[…]

[1] = curve of first compound, second compound 0.1 µM
[2] = curve of first compound, second compound 0.316 µM
[3] = curve of first compound, second compound 1 µM
[4] = curve of first compound, second compound 3.16 µM
[5] = curve of first compound, second compound 10 µM
[6] = second compound 0.1 µM, first compound 0.0316 µM
[7] = second compound 0.1 µM, first compound 0.1 µM
[8] = second compound 0.316 µM, first compound 0.0316 µM
[9] = second compound 0.316 µM, first compound 0.1 µM
[10] = second compound 1 µM, first compound 0.0316 µM
[11] = second compound 1 µM, first compound 0.1 µM
[12] = second compound 3.16 µM, first compound 0.0316 µM
[13] = second compound 3.16 µM, first compound 0.1 µM
[14] = second compound 10 µM, first compound 0.0316 µM
[15] = second compound 10 µM, first compound 0.1 µM
[16] = second compound 0.1 µM, first compound 0.316 µM
[17] = second compound 0.1 µM, first compound 1 µM
[18] = second compound 0.1 µM, first compound 3.16 µM
[19] = second compound 0.1 µM, first compound 10 µM
[20] = second compound 0.316 µM, first compound 0.316 µM
[21] = second compound 0.316 µM, first compound 1 µM
[22] = second compound 0.316 µM, first compound 3.16 µM
[23] = second compound 0.316 µM, first compound 10 µM
[24] = second compound 1 µM, first compound 0.316 µM
[25] = second compound 1 µM, first compound 1 µM
[26] = second compound 1 µM, first compound 3.16 µM
[27] = second compound 1 µM, first compound 10 µM

For `CC(C)n1nc(-c2ccc3oc(N)nc3c2)c2c(N)ncnc21` + CC(C)NCC(C(=O)N1CCN(c2ncnc3c2C(C)CC3O)CC1)c1ccc(Cl)cc1, the IC50 [1] was 0.623 nM, the IC50 [2] was less than 0.316 nM and the IC50 [3] was less than 0.316 nM. It also gave an IC50 [4] of less than 0.316 nM, an IC50 [5] of less than 0.316 nM and a viability, T/C (second compound 0.1 µM, first compound 0.000316 µM) of 59.2%. The viability, T/C (second compound 0.1 µM, first compound 0.001 µM) was 43.4%, the viability, T/C (second compound 0.1 µM, first compound 0.00316 µM) was 26.4% and the viability, T/C (second compound 0.1 µM, first compound 0.01 µM) was 13.7%. It also gave a viability, T/C [6] of 8.65%, a viability, T/C [7] of 6.5% and a viability, T/C (second compound 0.316 µM, first compound 0.000316 µM) of 32%. It also gave a viability, T/C (second compound 0.316 µM, first compound 0.001 µM) of 24.6%, a viability, T/C (second compound 0.316 µM, first compound 0.00316 µM) of 19.7% and a viability, T/C (second compound 0.316 µM, first compound 0.01 µM) of 9.18%. It also gave a viability, T/C [8] of 5.66%, a viability, T/C [9] of 4.86% and a viability, T/C (second compound 1 µM, first compound 0.000316 µM) of 18.7%. The viability, T/C (second compound 1 µM, first compound 0.001 µM) was 14.1%, the viability, T/C (second compound 1 µM, first compound 0.00316 µM) was 12% and the viability, T/C (second compound 1 µM, first compound 0.01 µM) was 7.26%. For the same compound, the viability, T/C [10] was 4.57%, the viability, T/C [11] was 4.78% and the viability, T/C (second compound 3.16 µM, first compound 0.000316 µM) was 14.5%. It also gave a viability, T/C (second compound 3.16 µM, first compound 0.001 µM) of 12.7%, a viability, T/C (second compound 3.16 µM, first compound 0.00316 µM) of 9.97% and a viability, T/C (second compound 3.16 µM, first compound 0.01 µM) of 5.51%. It also gave a viability, T/C [12] of 3.82%, a viability, T/C [13] of 3.94% and a viability, T/C (second compound 10 µM, first compound 0.000316 µM) of 8.69%. The viability, T/C (second compound 10 µM, first compound 0.001 µM) was 9.03%, the viability, T/C (second compound 10 µM, first compound 0.00316 µM) was 6.95% and the viability, T/C (second compound 10 µM, first compound 0.01 µM) was 3.56%. The viability, T/C [14] was 2.31% and the viability, T/C [15] was 3.23%.

With `C=CC(=O)N1CCN(c2nc(=O)n(-c3c(C)ccnc3C(C)C)c3nc(-c4c(O)cccc4F)c(F)cc23)C(C)C1` (stereo unspecified) + CCN1CCN(Cc2ccc(Nc3ncc(F)c(-c4cc(F)c5nc(C)n(C(C)C)c5c4)n3)nc2)CC1 the IC50 (curve of first compound, second compound 0.01 µM) was greater than 10000 nM, the IC50 (curve of first compound, second compound 0.0316 µM) was greater than 10000 nM and the IC50 [1] was greater than 10000 nM. It also gave an IC50 [2] greater than 10000 nM, an IC50 [3] greater than 10000 nM and a viability, T/C (second compound 0.01 µM, first compound 0.0316 µM) of 89.9%. It also gave a viability, T/C (second compound 0.01 µM, first compound 0.1 µM) of 99.2%, a viability, T/C (second compound 0.01 µM, first compound 0.316 µM) of 93.8% and a viability, T/C (second compound 0.01 µM, first compound 1 µM) of 107%. The viability, T/C (second compound 0.01 µM, first compound 3.16 µM) was 96.5%, the viability, T/C (second compound 0.01 µM, first compound 10 µM) was 61.7% and the viability, T/C (second compound 0.0316 µM, first compound 0.0316 µM) was 74.4%. The viability, T/C (second compound 0.0316 µM, first compound 0.1 µM) was 82.8%, the viability, T/C (second compound 0.0316 µM, first compound 0.316 µM) was 79% and the viability, T/C (second compound 0.0316 µM, first compound 1 µM) was 81.8%. For the same compound, the viability, T/C (second compound 0.0316 µM, first compound 3.16 µM) was 85.4%, the viability, T/C (second compound 0.0316 µM, first compound 10 µM) was 53.8% and the viability, T/C [6] was 58.8%. The viability, T/C [7] was 66.5%, the viability, T/C [16] was 65.5% and the viability, T/C [17] was 69%. The viability, T/C [18] was 73.2%, the viability, T/C [19] was 47.1% and the viability, T/C [8] was 53.7%. For the same compound, the viability, T/C [9] was 59%, the viability, T/C [20] was 61.8% and the viability, T/C [21] was 61%. It also gave a viability, T/C [22] of 62.8%, a viability, T/C [23] of 48% and a viability, T/C [10] of 47%. It also gave a viability, T/C [11] of 53.3%, a viability, T/C [24] of 53.7% and a viability, T/C [25] of 55.5%. The viability, T/C [26] was 57.5% and the viability, T/C [27] was 46.9%.

`C=CC(=O)N1CCN(c2nc(=O)n(-c3c(C)ccnc3C(C)C)c3nc(-c4c(O)cccc4F)c(F)cc23)C(C)C1` (stereo unspecified) + CC(C)NCC(C(=O)N1CCN(c2ncnc3c2C(C)CC3O)CC1)c1ccc(Cl)cc1 showed an IC50 [1] of 7190 nM, an IC50 [2] of less than 31.6 nM and an IC50 [3] of less than 31.6 nM. The IC50 [4] was less than 31.6 nM, the IC50 [5] was less than 31.6 nM and the viability, T/C [6] was 75.9%. It also gave a viability, T/C [7] of 80.2%, a viability, T/C [16] of 77.7% and a viability, T/C [17] of 76.3%. For the same compound, the viability, T/C [18] was 72.7%, the viability, T/C [19] was 41% and the viability, T/C [8] was 35.8%. For the same compound, the viability, T/C [9] was 39.4%, the viability, T/C [20] was 39.6% and the viability, T/C [21] was 38.7%. It also gave a viability, T/C [22] of 39.5%, a viability, T/C [23] of 26.2% and a viability, T/C [10] of 21.1%. It also gave a viability, T/C [11] of 19.1%, a viability, T/C [24] of 21.4% and a viability, T/C [25] of 23.8%. It also gave a viability, T/C [26] of 24.6%, a viability, T/C [27] of 16.9% and a viability, T/C [12] of 14.8%. The viability, T/C [13] was 17.1%, the viability, T/C (second compound 3.16 µM, first compound 0.316 µM) was 16.4% and the viability, T/C (second compound 3.16 µM, first compound 1 µM) was 18.2%. For the same compound, the viability, T/C (second compound 3.16 µM, first compound 3.16 µM) was 17%, the viability, T/C (second compound 3.16 µM, first compound 10 µM) was 11.2% and the viability, T/C [14] was 9.96%. The viability, T/C [15] was 10.9%, the viability, T/C (second compound 10 µM, first compound 0.316 µM) was 10.4% and the viability, T/C (second compound 10 µM, first compound 1 µM) was 10.8%. The viability, T/C (second compound 10 µM, first compound 3.16 µM) was 10.9% and the viability, T/C (second compound 10 µM, first compound 10 µM) was 6.35%.

`CC(C)NCC(C(=O)N1CCN(c2ncnc3c2C(C)CC3O)CC1)c1ccc(Cl)cc1` (stereo unspecified) was tested, and the viability, T/C (compound 0.1 µM) was 69% [middle of 13 runs], the viability, T/C (compound 0.316 µM) was 37.8% [middle of 13 runs] and the viability, T/C (compound 1 µM) was 21.5% [middle of 13 runs]. The viability, T/C (compound 3.16 µM) was 15.8% [middle of 13 runs], the viability, T/C (compound 10 µM) was 10.5% [middle of 12 runs] and the IC50 (compound alone, run of 05/18/2021) was 202 nM [middle of 13 runs].
